Assay [1] has as its target T1, CaCC (Ca^2+-activated chloride channels) in NCL-SG3-hsYFP cells (Homo sapiens, UniProt Q5XXA6).
T1 sequence (Q5XXA6 1-986): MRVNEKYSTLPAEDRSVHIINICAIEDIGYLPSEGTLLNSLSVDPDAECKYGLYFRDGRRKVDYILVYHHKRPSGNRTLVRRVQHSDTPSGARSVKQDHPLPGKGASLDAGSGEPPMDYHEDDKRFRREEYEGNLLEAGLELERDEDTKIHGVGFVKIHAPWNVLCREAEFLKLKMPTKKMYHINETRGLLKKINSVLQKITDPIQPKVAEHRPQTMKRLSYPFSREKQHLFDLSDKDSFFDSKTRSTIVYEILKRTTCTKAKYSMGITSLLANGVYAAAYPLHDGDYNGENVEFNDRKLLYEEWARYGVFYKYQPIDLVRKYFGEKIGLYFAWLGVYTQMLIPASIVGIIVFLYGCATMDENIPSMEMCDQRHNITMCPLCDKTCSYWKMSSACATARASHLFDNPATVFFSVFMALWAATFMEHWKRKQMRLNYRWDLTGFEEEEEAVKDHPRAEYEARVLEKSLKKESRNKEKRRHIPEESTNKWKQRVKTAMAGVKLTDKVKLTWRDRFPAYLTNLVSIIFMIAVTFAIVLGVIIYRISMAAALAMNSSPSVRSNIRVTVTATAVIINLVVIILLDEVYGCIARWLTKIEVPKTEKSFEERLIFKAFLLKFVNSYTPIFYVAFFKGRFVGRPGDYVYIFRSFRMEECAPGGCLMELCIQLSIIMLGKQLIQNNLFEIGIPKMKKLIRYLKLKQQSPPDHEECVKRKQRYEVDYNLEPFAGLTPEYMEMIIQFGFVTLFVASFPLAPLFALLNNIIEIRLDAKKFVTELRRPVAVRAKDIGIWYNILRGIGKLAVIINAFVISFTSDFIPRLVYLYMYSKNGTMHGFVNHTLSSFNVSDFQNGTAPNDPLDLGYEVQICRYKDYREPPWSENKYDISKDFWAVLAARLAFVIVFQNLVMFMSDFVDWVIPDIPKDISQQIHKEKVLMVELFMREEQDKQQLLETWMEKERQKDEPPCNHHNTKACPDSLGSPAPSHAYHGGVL
As to the kind of experiment: hsYFP fluorescence quenching (Cl^− efflux/I^− influx) assay in NCL-SG3-hsYFP CaCC activity sensor cells. As to conditions: for Effect on hsYFP quenching by Cl^− efflux/I^− influx mediated by ATP: 25 μM; for Dose dependence of inhibition of CaCC-mediated Cl^− efflux: increasing inhibitor concentrations, stimulation with 330 μM ATP. The assay is classed as cell-based. The method, then:
The halide inside the cell functionally interacts with the halide-sensitive cytoplasmic indicator protein, which leads to a quenching of the signal provided by the halide-sensitive cytoplasmic indicator protein. The more halide (such as e.g. iodide) flows into the cell, the weaker the signal emitted by the halide-sensitive cytoplasmic indicator protein becomes. This alteration of the signal emitted by the halide-sensitive cytoplasmic indicator protein is determined in a third step of the method of the invention. Due to the fact that the influx of halide into the cell is proportional to the efflux of chloride ions, the halide influx is used as a direct measure for chloride secretion. To determine the amount of chloride secretion, the fluorescence decrease is plotted against time (Δfluorescence/Δtime) and the initial slope of the resulting graph represents the iodide influx rate (sec^−1), which in turn is directly proportional to the chloride efflux rate, representing the amount of chloride secretion per time. In a fourth step, this amount of chloride secretion determined in the presence of a test compound is compared to the amount of chloride secretion determined in the absence of a said compound.
Effect of CaCC inhibitors on sweat gland-specific Ca^2+-dependent […] and proportional I^− influx was determined using NCL-SG3-hsYFP cells. Quenching of intracellular hsYFP fluorescence was measured and plotted over time. Exemplary raw data (B) and fitted curves are shown (A). NCL-SG3-hsYFP cells were incubated with 50 μM tannic acid (TA), 25 μM niflumic acid (NFA), 25 μM 5-nitro-2-(3-phenylpropyl-amino) benzoic acid (NPPB), 100 μM epigallocatechin-3-gallate (EGCG) for 15 min and then stimulated with 330 μM ATP.
Sweat gland-specific Ca^2+-dependent Cl^− efflux and a proportional I^− influx was determined using NCL-SG3-hsYFP cells. Quenching of intracellular hsYFP fluorescence was measured and plotted over time. Exemplary fitted curves are shown. NCL-SG3-hsYFP cells were incubated with increasing concentrations of tannic acid (TA) and then stimulated with 330 μM ATP. […] NCL-SG3-hsYFP cells were incubated with increasing concentrations of CaCC inhibitors and quenching of intracellular hsYFP fluorescence was measured after stimulation with ATP. The rate of […] (sec^−1), which is proportional to Ca^2+-dependent […] was calculated from the initial slope of the measured hsYFP fluorescence (ΔYFP fluorescence/Δtime) and is a direct measure of CaCC activity. IC50 values were determined by plotting the percentage of residual CaCC activity against the individual inhibitor concentration.
NCL-SG3-hsYFP cells were routinely cultivated in Williams' Medium E supplemented with 9% Fetal Calf Serum, 3.5 mM Glutamine, 9 ng/μl Hydrocortisone, Insulin-Transferrin-Selenium-Supplement (PAA Laboratories) at 37° C. and 5% CO2. For microplate assays, 20,000 cells were seeded in 96-well black-walled, clear bottom microplates (Costar) and cultivated for 2 days until cells reached confluency. Cells were washed three times with 100 μl modified Krebs-Henseleit (KH) buffer (137 mM NaCl, 2.7 mM KCl, 1.2 mM MgSO4, 1.2 mM KH2PO4, 4.2 mM NaHCO3, 1.3 mM CaCl2, 10 mM HEPES, pH 7.4) and incubated with the test compound in 50 μl KH-buffer for 15 min at 37° C. and 5% CO2. Microplates were transferred into an automated fluorescence plate reader (FlexStation®, Molecular Devices) and cellular hsYFP fluorescence was continuously recorded every 3.5 sec until end of the experiment (excitation at 485 nm, emission at 535 nm, cutoff 515 nm).

Assay [2] concerns CaCCs in human colonic epithelial cells. The settings on record: reference (44); cited from earlier work.

As to `O=C(O)c1cccnc1Nc1cccc(C(F)(F)F)c1` [NFA, niflumic acid], the “Effect on hsYFP quenching by Cl^− efflux/I^− influx mediated by ATP” value in assay [1] (15 min, then 330 μM ATP) is recorded as “significant reduction of hsYFP quenching”. The “Dose dependence of inhibition of CaCC-mediated Cl^− efflux” value in assay [1] is reported as “antagonized CaCC-mediated Cl^− efflux in a dose-dependent manner”.
With `O=C(O)c1cc([N+](=O)[O-])ccc1NCCCc1ccccc1` [NPPB, 5-nitro-2-(3-phenylpropyl-amino) benzoic acid], the “Effect on hsYFP quenching by Cl^− efflux/I^− influx mediated by ATP” value in assay [1] (15 min, then 330 μM ATP) is “significant reduction of hsYFP quenching”. In addition, the “Dose dependence of inhibition of CaCC-mediated Cl^− efflux” value in assay [1] is given as “antagonized CaCC-mediated Cl^− efflux in a dose-dependent manner”.
For the compound `C[C@H](CCC(=O)O)C[C@H](C)C[C@H](C)C(=O)/C=C(\O)[C@H](C)C[C@H](C)C/C=C/[C@@H](C)[C@@H](O)[C@@H](C)[C@@H](O)C[C@@H]1CC[C@@](C)([C@H]2CC[C@@](C)([C@@H](C)O)O2)O1` [ionomycin], the “Quenching of hsYFP fluorescence after addition of Ca^2+-elevating agent” value in assay [1] (1 μM) is on record as “quick quenching of the hsYFP fluorescence followed by a slow recovery”.
On to epigallocatechin-3-gallate [EGCG], for which the “Effect on CaCC-mediated Cl^− efflux (hsYFP quenching) mediated by ATP” value in assay [1] (100 μM, 15 min, then 330 μM ATP) is given as “no effect”. In addition, the “Inhibition of CaCCs / Cl^− currents” value in assay [2] is “effectively inhibits”.
